In ChEMBL document CHEMBL1124722, “Synthesis and anticonvulsant activity of 2-benzylglutarimides” (J Med Chem, 1990):
Calls of active or inactive are those of the source. The rule behind the calls is not given here.

Legend:
[1] = test system: Mus musculus; assay: Anticonvulsant activity against subcutaneous administered Metrazol induced seizures (scMET) after 4 hr at 300 mg/kg; Active; format: functional, organism-based; parameters: dose 300 mg/kg
[2] = test system: Mus musculus; assay: (§1) The Neurologic toxicity by measuring rotarod test after 4 hr; Not active up to 300 mg/kg; format: organism-based; parameters: dose 300 mg/kg; settings: in vivo
[3] = test system: Mus musculus; assay: Anticonvulsant activity against subcutaneous administered Metrazol induced seizures (scMET) after 0.5 hr at 300 mg/kg; Active; format: functional, organism-based; parameters: dose 300 mg/kg
[4] = test system: Mus musculus; assay: Anticonvulsant activity against maximal electroshock induced seizures (MES) after 0.5 h; Not active up to 300 mg/kg; format: functional, organism-based; parameters: dose 300 mg/kg
[5] = test system: Mus musculus; assay: (§2) The Neurologic toxicity by measuring rotarod test after 0.5 h; Not active up to 300 mg/kg; format: organism-based; parameters: dose 300 mg/kg; settings: in vivo
[6] = test system: Mus musculus; assay: Anticonvulsant activity against maximal electroshock induced seizures (MES) after 4 hr at 300 mg/kg; Active; format: functional, organism-based; parameters: dose 300 mg/kg
[7] = test system: Mus musculus; assay: Anticonvulsant activity against maximal electroshock induced seizures after 4 hr; Not active up to 300 mg/kg.; format: functional, organism-based; parameters: dose 300 mg/kg
[8] = test system: Mus musculus; assay: Anticonvulsant activity against subcutaneous administered Metrazol induced seizures (scMET) after 4 hr; Not active up to 300 mg/kg; format: functional, organism-based; parameters: dose 300 mg/kg
[9] = test system: Mus musculus; assay: as §2; format: functional, organism-based; parameters: dose 300 mg/kg
[10] = test system: Mus musculus; assay: Anticonvulsant activity against subcutaneous administered Metrazol induced seizures (scMET) after 0.5 hr; Not active up to 300 mg/kg; format: functional, organism-based; parameters: dose 300 mg/kg
[11] = test system: Mus musculus; assay: as §1; format: functional, organism-based; parameters: dose 300 mg/kg
[12] = test system: Mus musculus; assay: The Neurologic toxicity by measuring rotarod test after 4 hr at 300 mg/kg; Active; format: organism-based; parameters: dose 300 mg/kg; settings: in vivo
[13] = test system: Mus musculus; assay: The Neurologic toxicity by measuring rotarod test after 0.5 hr at 300 mg/kg; Active; format: organism-based; parameters: dose 300 mg/kg; settings: in vivo
[14] = test system: Mus musculus; assay: The effective dose of compound was tested against subcutaneous administered Metrazol induced seizures after intraperitoneal administration;NE=Not effective; format: functional, organism-based
[15] = test system: Rattus norvegicus; assay: The effective dose of compound was tested against subcutaneous administered Metrazol induced seizures in rat; NE=Not effective; format: functional, organism-based
[16] = organism: Mus musculus; assay: (§3) Time of peak effect activity against maximal electroshock induced seizures; format: functional
[17] = organism: Mus musculus; assay: Time of peak effect was determined for toxicity; format: organism-based; parameters: unit not given here; settings: in vivo
[18] = organism: Mus musculus; assay: Time of peak effect toxicity against maximal electroshock induced seizures; format: organism-based; settings: in vivo
[19] = organism: Mus musculus; assay: Time of peak effect was determined for activity in MES; format: functional; parameters: unit not given here
[20] = Median lethal dose was measured after 24 hr.; format: organism-based; settings: mouse, in vivo
[21] = The cytotoxicity after intraperitoneal administration in rat.; format: organism-based; settings: in vivo, ip
[22] = organism: Mus musculus; assay: Median hypnotic dose by loss of righting reflex.; format: functional
[23] = test system: Mus musculus; assay: Anticonvulsant activity against subcutaneous administered Metrazol induced seizures (scMET) after 0.5 hr at 30 mg/kg; Active; format: functional, organism-based; parameters: dose 30 mg/kg
[24] = test system: Rattus norvegicus; assay: The effective dose of compound was tested against subcutaneous administered Metrazol induced seizures in rat.; format: functional; settings: sc
[25] = test system: Mus musculus; assay: The effective dose of compound was tested against subcutaneous administered Metrazol induced seizures after intraperitoneal administration; format: functional
[26] = test system: Mus musculus; assay: The compound was tested for anticonvulsant activity against (subcutaneous administered) Metrazol induced seizures after intraperitoneal administration; format: functional
[27] = organism: Mus musculus; assay: Median hypnotic dose by loss of righting reflex; format: functional
[28] = test system: Mus musculus; assay: The compound was tested for anticonvulsant activity against (subcutaneous administered) strychnine induced seizures after intraperitoneal administration; format: functional
[29] = test system: Mus musculus; assay: The effective dose of compound was tested against subcutaneous administered Metrazol induced seizures in mice; format: functional; settings: sc
[30] = test system: Mus musculus; assay: The effective dose of compound was tested against maximal electroshock induced seizures after oral administration in mice; format: functional
[31] = organism: Mus musculus; assay: Median lethal dose was measured after 24 hr; format: functional
[32] = test system: Mus musculus; assay: The effective dose of compound was tested against maximal electroshock induced seizures after intraperitoneal administration; format: functional; settings: ip
[33] = test system: Mus musculus; assay: Anticonvulsant activity against subcutaneous administered Metrazol induced seizures (scMET) after 0.5 hr at 100 mg/kg; Active; format: functional, organism-based; parameters: dose 100 mg/kg
[34] = The cytotoxicity after intraperitoneal administration; format: organism-based; settings: mouse, in vivo, ip
[35] = test system: Mus musculus; assay: Anticonvulsant activity against maximal electroshock induced seizures (MES) after 0.5 hr at 300 mg/kg; Active; format: functional, organism-based; parameters: dose 300 mg/kg
[36] = Protective index was calculated (TD50/ED50) in MES assay in mice after intraperitoneal administration; format: functional
[37] = Protective index was calculated (TD50/ED50) in scMET assay in mice after intraperitoneal administration; format: functional
[38] = test system: Rattus norvegicus; assay: The effective dose of compound was tested against maximal electroshock induced seizures after oral administration in rat.; format: functional
[39] = test system: Mus musculus; assay: The effective dose of compound was tested against maximal electroshock induced seizures after intraperitoneal administration.; format: functional; settings: ip
[40] = organism: Mus musculus; assay: as §3; format: ADME, organism-based; settings: in vivo
[41] = test system: Mus musculus; assay: The effective dose of compound was tested against subcutaneous administered Metrazol induced seizures after intraperitoneal administration.; format: functional
[42] = test system: Mus musculus; assay: The effective dose of compound was tested against maximal electroshock induced seizures after oral administration in mice.; format: functional
[43] = Protective index was calculated (TD50/ED50) in MES assay in mice after intraperitoneal administration; […]; format: functional, organism-based
[44] = test system: Mus musculus; assay: Anticonvulsant activity against subcutaneous administered Metrazol induced seizures (scMET) after 4 hr at 100 mg/kg; Active; format: functional, organism-based; parameters: dose 100 mg/kg

## CN1C(=O)CCC(Cc2ccc(C(F)(F)F)cc2)C1=O (stereo unspecified)
[1]
  Activity: Active
[2]
  Toxicity: Not Active
[3]
  Activity: Active
[4]
  Activity: inactive
[5]
  Toxicity: Not Active
[6]
  Activity: Active

## CN1C(=O)CCC(Cc2ccc([Si](C)(C)C)cc2)C1=O (stereo unspecified)
[7]
  Activity: inactive
[8]
  Activity: inactive
[9]
  Toxicity: inactive
[10]
  Activity: inactive
[4]
  Activity: inactive
[11]
  Toxicity: inactive

## CCCOc1ccc(CC2CCC(=O)NC2=O)cc1 (stereo unspecified)
[7]
  Activity: inactive
[8]
  Activity: inactive
[12]
  Toxicity: Active
[13]
  Toxicity: Active
[10]
  Activity: inactive
[4]
  Activity: inactive

## O=C1NC(=O)C(c2ccccc2)(c2ccccc2)N1 [PHENYTOIN]
[14]
  ED50: inactive
[15]
  ED50: inactive
[16]
  Activity: 2 h
[17]
  TPE: 2
[18]
  Time of peak effect: 2 h
[19]
  TPE: 2
[20]
  LD50 at 24 h: 230 mg/kg
[21]
  TD50: > 3000 mg/kg
[22]
  HD50: 178.34 mg/kg

## CN1C(=O)CCC(Cc2ccc(I)cc2)C1=O (stereo unspecified)
[7]
  Activity: inactive
[23]
  Activity: Active
[1]
  Activity: Active
[2]
  Toxicity: Not Active
[4]
  Activity: inactive
[5]
  Toxicity: Not Active

## CCCC(CCC)C(=O)O [VALPROIC ACID]
[24]
  ED50: 180 mg/kg
[16]
  Activity: 0.25
[18]
  Time of peak effect: 0.25
[25]
  ED50: 149 mg/kg
[26]
  ED50: 149 mg/kg
[27]
  HD50: 885.53 mg/kg
[28]
  ED50: 293 mg/kg
[29]
  ED50: 388 mg/kg
[30]
  ED50: 665 mg/kg
[31]
  LD50: 1100 mg/kg
[32]
  ED50: 272 mg/kg

## CN1C(=O)CCC(Cc2ccc(Cl)cc2)C1=O (stereo unspecified)
[33]
  Activity: Active
[7]
  Activity: inactive
[34]
  TD50: 348 mg/kg
[35]
  Activity: Active
[17]
  TPE: 1
[8]
  Activity: inactive
[19]
  TPE: 0.5
[2]
  Toxicity: Not Active
[13]
  Toxicity: Active
[25]
  ED50: 124 mg/kg
[36]
  Ratio: 1.4
[32]
  ED50: 248 mg/kg
[37]
  Ratio: 2.81

## O=C1CCC(Cc2ccc(F)cc2)C(=O)N1 (stereo unspecified)
[7]
  Activity: inactive
[8]
  Activity: inactive
[2]
  Toxicity: Not Active
[3]
  Activity: Active
[13]
  Toxicity: Active

## O=C1CCC(Cc2ccc(-c3ccccc3)cc2)C(=O)N1 (stereo unspecified)
[7]
  Activity: inactive
[8]
  Activity: inactive
[2]
  Toxicity: Not Active
[10]
  Activity: inactive
[4]
  Activity: inactive
[5]
  Toxicity: Not Active

## CCC1(C)CC(=O)NC1=O (stereo unspecified) [ETHOSUXIMIDE]
[38]
  ED50: > 1200 mg/kg
[24]
  ED50: 54 mg/kg
[18]
  Time of peak effect: 0.5
[20]
  LD50 at 24 h: 1750 mg/kg
[39]
  ED50: > 1000 mg/kg
[40]
  Activity: 0.5
[26]
  ED50: 130 mg/kg
[29]
  ED50: 192 mg/kg
[41]
  ED50: 130 mg/kg
[22]
  HD50: 850.61 mg/kg
[42]
  ED50: > 2000 mg/kg

## O=C1CCC(Cc2ccc(Cl)cc2Cl)C(=O)N1 (stereo unspecified)
[7]
  Activity: inactive
[34]
  TD50: 687 mg/kg
[17]
  TPE: 0.5
[12]
  Toxicity: Active
[19]
  TPE: 1
[3]
  Activity: Active
[13]
  Toxicity: Active
[4]
  Activity: inactive
[41]
  ED50: 160 mg/kg
[43]
  Ratio: inactive
[44]
  Activity: Active
[37]
  Ratio: 4.29
